This is an account of results in patent US10597649B2, “Tau protease compositions and methods of use” (Oligomerix, Inc., priority 2011, dated 2020).

The target of assay [1] is T1, tau 4R2N trimer (Homo sapiens, UniProt P10636).
T1 construct: Stabilization buffer enables production of full length monomer, dimer and trimer for tau protease; made in house; host or cells: E. coli BL21 (DE3) Gold
Nature of the assay: Tau 4R2N trimer incubated overnight with protease inhibitors, fragmentation read by SDS-PAGE. The settings on record: overnight at 37° C., inhibitors at low and high concentrations; chymostatin 10 and 100 μM. Format: biochemical.
Description: Tau 4R2N trimer was incubated overnight at 37° C. with and without serine-specific protease inhibitors (Sigma Aldrich, St. Louis, Mo.). The incubation volumes were 3.45 microliter at a final concentration of 0.145 mg/mL tau 4R2N trimer.
Tau 4R2N trimer was incubated overnight at 37° C. with and without serine-specific protease inhibitors at low and high concentrations.
Tau trimer protease was incubated with and without protease inhibitor cocktail overnight containing serine protease, amino-peptidase, cysteine protease and aspatic protease inhibitors.
For each sample, 0.45 μg of tau 4R2N trimer was incubated at 0.2 mg/mL overnight at 37° C. in the presence of various freshly prepared protease inhibitors. Non-incubated control was kept on ice overnight at 4° C. Next day, 2× sodium dodecyl sulfate sample buffer with reductant was added to each sample and loaded onto a 4-20% gradient Tris-HCl Criterion Gel (Bio-Rad).
Protease inhibitors targeted include serine proteases, amino-peptidases, cysteine proteases, metallo-proteases, and aspartic proteases.

For assay [2], the target named is T2, tau 4R2N trimer protease (Homo sapiens, UniProt P10636).
T2 construct: Stabilization buffer enables production of full length monomer, dimer and trimer for tau protease; made in house; host or cells: E. coli BL21 (DE3) Gold
Nature of the assay: Peptide assay (tau peptide 335-353, reverse-phase HPLC) used to screen serine protease inhibitors. The format is biochemical. Also noted: inhibition of cleavage of the peptide (FIG. 14D) / inhibition of cleavage of the peptide (FIG. 14F): dose or concentration left out as unconfirmed. The settings on record: 1 hr at room temperature before peptide substrate. An excerpt: N-terminal sequencing of fragments using mass spectrometry identified autoproteolytic cut sites. In particular, cutting at the Lys340-Ser341 (340KS341) cut site occurred readily. Therefore, a 19-amino acid peptide corresponding to amino acids 335G to 353L of tau protein was synthesized that contained the KS cut site (340KS341). The reaction was monitored by reverse-phase high-pressure liquid chromatography (HPLC). […] An asterisk marks a non-specific contaminant that was used as a marker. […] 10 μg of tau peptide 335-353 ([…]) (SEQ ID NO:19) was custom synthesized by Genscript (Piscataway, N.J., USA) and 1 mg was dissolved in 1 mL of buffer (25 mM Tris-HCl pH 7.4). […] of peptide was incubated with 11 μg of tau trimer protease in 30 μL buffer 20 hr at 37° C. and analyzed by HPLC [SystemGold® 32Karat™ LC-CE System, Beckman Coulter, Inc., (Indianapolis, Ind.)] using a linear gradient of acetonitrile in 0.1% TFA 0-60% acetonitrile on an analytical C18 column (12.5 cm×2.1 mm, 5 μm, (Supelco, Bellefonte, Pa., USA). 30 μg of peptide was incubated without tau protease as a negative control and analyzed with the same method;
The peptide assay for tau 4R2N trimer activity described in FIG. 5 was used to screen a series of serine protease inhibitors. 1 mM AEBSF was incubated with tau 4R2N trimer for 1 hr at room temperature before addition of the peptide substrate. […] The asterisk indicates an artifactual peak unrelated to the peptide;

Assay [3] deals with T3, Tau 4R2N (Homo sapiens, UniProt P10636).
T3 construct: Stabilization buffer enables production of full length monomer, dimer and trimer for tau protease; made in house; host or cells: E. coli BL21 (DE3) Gold
Kind of assay: NEM treatment of tau 4R2N monomer, incubation at 37° C., non-reducing SDS-PAGE. The format is biochemical. As to conditions: 1 mM NEM for 2 hr. As to the method:
FIG. 2 illustrates the formation of disulfide mediated tau oligomers preceded truncation and higher order aggregate formation. Tau 4R2N oligomers were purified by continuous-elution electrophoresis and monomer was further purified by pooling and buffer exchanging using spin columns with a molecular weight cut-off of 7000 Da into 25 mM Tris-HCl pH 7.4. A small amount of the monomer was treated with freshly-prepared NEM at a final concentration of 1 mM for 2 hr at ambient temperature. For incubations, monomer treated and untreated with NEM was allowed to incubate at 37° C. over the weekend (approximately 50 hrs), followed by separation on 4-20% sodium dodecyl sulfate (SDS)-polyacrylamide gel electrophoresis (PAGE) (SDS-PAGE) Tris-HCl gel (Bio-Rad Catalogue #345-0033 Hercules, Calif., USA) without reductant. Tau 4R2N—Disulfide-mediated oligomer formation preceded truncation, and truncation preceded higher-order aggregation. Aggregate formation was time dependent.

For assay [4], the system named is Aβ. As to conditions: clinical endpoint in Phase III; cited from earlier work.
Assay [5] addresses T1, tau 4R2N trimer. Nature of the assay: SDS titration for tau protease stabilization buffer. The format is biochemical. As for the experimental part:
(§1) Purified recombinant human tau 4R2N was prepared as described in the flow chart. Monomer, dimer and trimer species were purified preparative electrophoresis from a tau 4R2N preparation that had formed oligomers. The electrophoresis buffer contained 0.1% SDS which inhibited the proteolytic activity. Fractions containing the tau species were buffer exchanged into 25 mM Tris-HCl pH 7.4 using and Amicon ultrafiltration device (Merck Millipore, Billerica, Mass.), which led to restoration of tau autoproteolytic activity. Protein concentrations of the preparations were determined using the BCA kit (ThemoFisher Scientific). Samples were run on a pre-cast 4-20% polyacrylamide Tris-HCl gel (BioRad, Hercules, Calif.) without using reductant in order to visualize the disulfide mediated oligomers. The gel was stained with GelCodeBlue Safe (ThermoFisher Scientific, Rockford, Ill.). Lane 1: 5.2 μg of tau 4R2N oligomer standard; Lane 2: 2 microliter of monomer fraction before buffer exchange; Lane 3: 0.5 μg monomer after buffer exchange; Lane 4: […] of dimer fraction before buffer exchange; Lane 5: 0.5 μg dimer after buffer exchange; Lane 6: 20 μL trimer fraction before buffer exchange; Lane 7: 0.5 μg trimer after buffer exchange.
This example describes the development and characterization of a stabilization buffer for preserving the activity of tau protease. […]

In assay [6] the target is T4, Tau 4R2n 241-340 (TP-99) (Homo sapiens, UniProt P10636).
T4 construct: initiating methionine (N); made in house; host or cells: E. coli BL21 (DE3) Gold
Kind of assay: TP-99 peptide digest HPLC assay with added zinc chloride. Format: biochemical. The settings on record: 100 μM zinc chloride, 44 hr at 37° C. As to the method: As in FIG. 7, cleavage of the peptide substrate for tau protease Tau 4R2N (amino acids 335-353) was used to monitor activity using reverse-phase HPLC. […] The large peak in the lower trace indicates intact peptide which is greatly diminished in the upper trace and replaced with two smaller peaks F1 and F2 that represent fragments generated by TP-99. […] The asterisk indicates an artifact peak that is derived from the incubation tube. Ten microgram of Tau peptide 335-353 (OP-001) was incubated without TP-99, with 25 μL, TP-99 oligomer ladder, or with additional 100 μM zinc chloride, 44 hr at 37° C. in 30 μL buffer (25 mM Tris-HCl pH 7.4). Samples were analyzed by reverse phase HPLC (SystemGold® 32Karat™ LC-CE System, Beckman Coulter, Inc., (Indianapolis, Ind.)) using a linear gradient of acetonitrile in 0.1% TFA 0-60% acetonitrile on an analytical C18 column (12.5 cm×2.1 mm, 5 μm, (Supelco);

Assay [7] deals with T3, Tau 4R2N. Nature of the assay: Autoproteolytic activity of purified tau monomer, dimer and trimer (SDS-PAGE). Format: biochemical. The settings on record: for degradation in contamination control study (Example 3): 0.35 μg, overnight at 37° C., equal sample volumes from purification; for autoproteolytic activity (Example 1): after buffer exchange into 25 mM Tris-HCl pH 7.4, incubation at 37° C. As for the experimental part: This example describes the identification of the autoproteolytic activity of tau oligomers.
as §1
Tau 4R2N undergoes autoproteolytic cleavage (self-cleavage) when it forms disulfide-mediated oligomers upon incubation. Tau autoproteolyic activity co-purified with the dimer and trimer species. The amount of autoproteolytic activity was greatest with trimer which fragmented to the extent where no full size trimer remained after incubation. […] It was also shown that Tau autoproteolytic activity co-purified with dimer and trimer species. […] Full-length trimer digested completely into smaller fragments, and upon incubation, monomer formed an oligomeric ladder that produced a low level of autoproteolytic activity.
(§2) Monomer, Dimer, and Trimer of Tau 441 were purified under non-reducing conditions using continuous-elution electrophoresis. Fractions of each oligomer sample were pooled and buffer exchanged into stabilization buffer using an Amicon spin concentrator with a molecular weight cut-off of 30,000 daltons. 0.35 μg of each sample was incubated overnight at 37° C. while non-incubated control was kept on ice at 4° C. Next day, 2×SDS sample buffer without reductant was added to each sample and loaded onto a 4-20% gradient Tris-HCl Criterion Gel (Bio-Rad, Hercules, Calif.).
as §2, with “This example presents results from a contamination control study of tau protease. Monomer,” for “Monomer,”, “2× sodium dodecyl sulfate” for “2×SDS”
Lane 1—tau oligomer ladder standard; Lane 2—empty; Lane 3—purified monomer no incubation (fraction from purification plate); Lane 4—purified monomer without incubation; Lane 5—purified monomer with incubation; Lane 6—purified dimer without incubation; Lane 7—purified dimer with incubation; Lane 8—purified trimer without incubation; purified trimer with incubation overnight at 37° C. Lanes 3-9 were treated with sample buffer containing β-mercaptoethanol (BME).

T1 sequence (P10636 1-441 isoform P10636-8): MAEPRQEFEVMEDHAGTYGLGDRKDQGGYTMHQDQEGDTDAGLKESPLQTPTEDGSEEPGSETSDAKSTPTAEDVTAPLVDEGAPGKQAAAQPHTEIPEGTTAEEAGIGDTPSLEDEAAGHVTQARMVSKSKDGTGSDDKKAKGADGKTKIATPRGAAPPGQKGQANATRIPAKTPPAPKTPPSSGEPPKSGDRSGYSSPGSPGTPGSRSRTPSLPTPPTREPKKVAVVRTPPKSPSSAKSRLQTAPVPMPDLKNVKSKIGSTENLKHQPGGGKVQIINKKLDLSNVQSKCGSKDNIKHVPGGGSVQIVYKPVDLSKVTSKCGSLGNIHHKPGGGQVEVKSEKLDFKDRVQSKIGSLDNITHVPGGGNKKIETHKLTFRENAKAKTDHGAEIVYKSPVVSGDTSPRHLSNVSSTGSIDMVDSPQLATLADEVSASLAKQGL
T3 sequence (P10636 1-441 isoform P10636-8): as above
T2 sequence (P10636 1-441 isoform P10636-8): as above
T4 sequence (P10636 with tags, fused parts or gaps): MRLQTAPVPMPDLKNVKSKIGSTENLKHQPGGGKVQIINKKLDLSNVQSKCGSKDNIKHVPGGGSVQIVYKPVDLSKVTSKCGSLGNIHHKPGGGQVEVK

As for `CC(C)C[C@H](NC(=O)[C@@H](NC(=O)N[C@@H](Cc1ccccc1)C(=O)O)[C@@H]1CCN=C(N)N1)C(=O)N[C@H](C=O)Cc1ccccc1` [Chymostatin], the “inhibitory effect on tau 4R2N trimer, serine protease inhibitor panel (FIG. 12)” value in assay [1] is “greatest inhibitory effect”. Also, in assay [2] (chymostatin), the “inhibition of cleavage of the peptide (FIG. 14D)” value is given as “strongly inhibited”.
Consider `CCN1C(=O)C=CC1=O` [NEM, N-ethylmaleimide], for which, in assay [3] (then about 50 hrs at 37° C.), the disulfide-mediated oligomer formation entry was “irreversibly inhibited”. Also, in assay [3] (then incubation at 37° C.), the autoproteolytic activity entry was “loss of autoproteolytic activity” and the “higher order aggregate formation” value is “inhibition of higher order aggregate formation”.
On to `C[C@@H](C(=O)O)c1ccc(-c2ccccc2)c(F)c1` [R-flurbiprofen], for which the Status entry in assay [4] is recorded as “Failed to meet”.
Take `CCCCCCCCCCCCOS(=O)(=O)[O-].[Na+]` [SDS, sodium dodecyl sulfate]: the “minimal inhibitory concentration for the enzymatic activity” value in assay [5] (0.3 μg tau 4R2N trimer, overnight at 37° C., 50 mM TrisHCl pH 7.4) was 0.002%. Also, the “proteolytic activity in electrophoresis buffer” value in assay [5] (0.1% SDS) was “inhibited”.
`CC(C)[C@H](O)C(=O)N[C@@H](C)C(=O)N[C@@H]1C(=O)N(C)CCc2ccccc21` [Semagacestat]: in assay [4], the Status entry was “Failed to meet”.
For the molecule `NCCCS(=O)(=O)O` [Tramiprosate], the Status result in assay [4] is “Failed to meet”.
For `[Cl-].[Cl-].[Zn+2]` [zinc chloride], the “activity of TP-99 on tau peptide 335-353” value in assay [6] is “increased the activity”.
As for gabexate mesylate, the “inhibition of cleavage of the peptide (FIG. 14F)” value in assay [2] (gabexate mesylate) was “did not significantly inhibit”.
In the case of “tau 4R2N dimer: purified disulfide-mediated dimer species of recombinant human tau 4R2N”, in assay [7], the “degradation in contamination control study (Example 3)” value is reported as “minimal cleavage” and the “autoproteolytic activity (Example 1)” value is “showed autoproteolytic activity”.
Consider “tau 4R2N monomer: purified monomer species of recombinant human tau 4R2N”, for which, in assay [7], the “degradation in contamination control study (Example 3)” value was “minimal cleavage” and the “autoproteolytic activity (Example 1)” value is “minor activity”.
